The values below come from patent US9499551B2, “Substituted pyrrolo[2,3-b]pyridines for treating cancer or inflammatory diseases” (Confluence Life Sciences, Inc., priority 2014, dated 2016).

One test addresses T1, TAK1-TAB1 (Homo sapiens, UniProt O43318).
T1 sequence (O43318 with tags, fused parts or gaps limits assumed): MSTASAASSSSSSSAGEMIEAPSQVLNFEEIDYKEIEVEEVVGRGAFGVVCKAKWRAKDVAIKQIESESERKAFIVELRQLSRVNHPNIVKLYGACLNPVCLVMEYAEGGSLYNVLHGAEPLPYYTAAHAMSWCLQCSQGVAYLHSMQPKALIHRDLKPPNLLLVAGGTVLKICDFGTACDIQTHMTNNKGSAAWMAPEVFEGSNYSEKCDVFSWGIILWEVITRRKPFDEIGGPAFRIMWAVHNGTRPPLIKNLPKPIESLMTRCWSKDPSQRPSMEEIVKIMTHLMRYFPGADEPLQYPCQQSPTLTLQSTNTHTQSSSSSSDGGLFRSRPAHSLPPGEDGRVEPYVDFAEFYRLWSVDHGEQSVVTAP
Description: TAK1-TAB1 binding inhibitory potency (LanthaScreen competitive binding assay, kinase tracer-236). Particulars: 10 nM TAK1-TAB1, 100 nM kinase tracer-236; read-out: TAK1-Tab Inhibition IC50. In outline:
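Compounds were tested for TAK1-TAB1 binding in a 384-well LanthaScreen competitive FRET assay. TAK1-TAB1 (10 nM) and Eu-anti-his antibody (2 nM) were preincubated with compound for two hours before adding 100 nM Alexa Fluor 647 kinase tracer-236. The buffer was 20 mM HEPES pH 7.5, 10 mM MgCl2, 0.01% BSA, 0.0005% Tween-20 and 2% DMSO. IC50 came from 4-parameter logistic fits of emission ratio over an 11-point series from 20 μM to 0.34 nM.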

The subject of test [1] is IL-6 Production in Human Peripheral Blood Mononuclear Cells (PBMC). In words: LPS stimulated IL-6 production in PBMC cells. Format: cell-based. Particulars: read-out: IL-6 Production Inhibition IC50. As to the method: LPS Stimulated IL-6 Production in PBMC Cells:
Lipopolysaccharide (LPS) stimulated IL-6 Production in Human Peripheral Blood Mononuclear Cells (PBMC): The cellular efficacy of compound candidates is determined using peripheral blood mononuclear cells purified from human whole blood, based upon the methods of Burnette et al. (2009) Pharmacology, 84:42-60. PBMC produce a number of cytokines (IL6, IL8, IL1β and TNFα) in response to stimulation with LPS. To induce the production of inflammatory mediators, PBMC are plated at a final concentration of 2×10^5 cells/well in a 96 well flat bottom plate in DMEM medium supplemented with 10% fetal bovine serum, 100 units/ml penicillin and 100 μg/ml streptomycin (Gibco BRL Life Technologies). Cells are treated with or without inhibitors for 1-3 hrs then stimulated with 100 ng/ml LPS (serotype 011:B4, Sigma) for an additional 3 hrs at 37° C. with 5% CO2. The supernatants are removed and stored at −20° C. until they are to be assayed. The levels of inflammatory mediators are determined using commercial MSD cytokine kits (Meso Scale Discovery) as per the manufacturer's instructions. Standard curves are based on 7 steps of 4× serial dilutions, with a wide dynamic range of 10000 pg/ml to 2.4 pg/ml, and a blank. Lower limit of detection (LLOD) is calculated at the commonly used 3× the standard deviation of the blank.

For `NC(=O)/C=C/c1c[nH]c2ncc(-c3ccc(F)cc3F)cc12` [Example 2, (E)-3-(5-(2,4-Difluorophenyl)-1H-pyrrolo[2,3-b]pyridin-3-yl)acrylamide], the IC50 (at TAK1-TAB1; in test [1]) was no more than 1000 nM each time.

On to `CS(=O)(=O)c1ccc(-c2cnc3[nH]cc(/C=C/C(N)=O)c3c2)cc1` [Example 23, (E)-3-(5-(4-(methylsulfonyl)phenyl)-1H-pyrrolo[2,3-b]pyridin-3-yl)acrylamide], for which the concentration for half-maximal inhibition (IC50) was no more than 1000 nM on TAK1-TAB1 and greater than 1000 nM in test [1].

As for `NC(=O)/C=C/c1c[nH]c2ncc(N3CCN(c4ccccc4)CC3)cc12` [Example 297, (E)-3-(5-(4-phenylpiperazin-1-yl)-1H-pyrrolo[2,3-b]pyridin-3-yl)acrylamide], the IC50 (at TAK1-TAB1; in test [1]) was no more than 1000 nM each time.

As to `Cn1cc(-c2cnc3[nH]cc(/C=C/C(N)=O)c3c2)cn1` [Example 5, (E)-3-(5-(1-Methyl-1H-pyrazol-4-yl)-1H-pyrrolo[2,3-b]pyridin-3-yl)acrylamide], the concentration for half-maximal inhibition (IC50) (on TAK1-TAB1; in test [1]) was no more than 1000 nM throughout.

Take `N#Cc1ccc(-c2cnc3[nH]cc(/C=C/C(N)=O)c3n2)cc1` [Example 249, (E)-3-(2-(4-cyanophenyl)-5H-pyrrolo[2,3-b]pyrazin-7-yl)acrylamide]: the concentration for half-maximal inhibition (IC50) (on TAK1-TAB1; in test [1]) was no more than 1000 nM in each case.

In the case of `NC(=O)/C=C/c1c[nH]c2ncc(N3CCN(C(=O)c4ncc(F)cc4F)CC3)cc12` [Example 288, (E)-3-(5-(4-(3,5-difluoropicolinoyl)piperazin-1-yl)-1H-pyrrolo[2,3-b]pyridin-3-yl)acrylamide], the half-maximal inhibitory concentration (IC50) on TAK1-TAB1 is no more than 1000 nM; in test [1], greater than 1000 nM.

As to `CC(C)Nc1cnc2[nH]cc(/C=C/C(N)=O)c2c1` [Example 9, 3-(5-Isopropylamino-1H-pyrrolo[2,3-b]pyridin-3-yl)-acrylamide], the IC50 (on TAK1-TAB1; in test [1]) was no more than 1000 nM in each case.

For `N#Cc1ccc(-c2cnc3[nH]cc(/C=C/C(N)=O)c3n2)cn1` [Example 285, (E)-3-(2-(6-cyanopyridin-3-yl)-5H-pyrrolo[2,3-b]pyrazin-7-yl)acrylamide], the half-inhibitory concentration (IC50) (on TAK1-TAB1; in test [1]) was no more than 1000 nM each time.

Turning to `CC(C)NC(=O)c1ccc(-c2cnc3[nH]cc(/C=C/C(N)=O)c3c2)cn1` [Example 280, (E)-5-(3-(3-amino-3-oxoprop-1-en-1-yl)-1H-pyrrolo[2,3-b]pyridin-5-yl)-N-isopropyl-picolinamide], the half-maximal inhibitory concentration (IC50) (at TAK1-TAB1; in test [1]) was no more than 1000 nM throughout.

`NC(=O)/C=C/c1c[nH]c2ncc(-c3ccc(C(=O)N4CCCCC4)cc3)cc12` [Example 262, (E)-3-(5-(4-(piperidine-1-carbonyl)phenyl)-1H-pyrrolo[2,3-b]pyridin-3-yl)acrylamide]: the half-maximal inhibitory concentration (IC50) (at TAK1-TAB1; in test [1]) was no more than 1000 nM each time.

For the compound `CC(C)Oc1ccnc2[nH]cc(/C=C/C(N)=O)c12` [Example 7, (E)-3-(4-Isopropoxy-1H-pyrrolo[2,3-b]pyridin-3-yl)acrylamide], the half-maximal inhibitory concentration (IC50) (at TAK1-TAB1; in test [1]) was no more than 1000 nM throughout.

As for `CCOCCN1CCN(c2cnc3[nH]cc(/C=C/C(N)=O)c3c2)CC1` [Example 271, (E)-3-(5-(4-(2-ethoxyethyl)piperazin-1-yl)-1H-pyrrolo[2,3-b]pyridin-3-yl)acrylamide], the IC50 (on TAK1-TAB1; in test [1]) was no more than 1000 nM in each case.

Turning to `NC(=O)/C=C/c1c[nH]c2ncc(-c3cccnc3)cc12` [Example 13, 3-(5-Pyridin-3-yl-1H-pyrrolo[2,3-b]pyridin-3-yl)-acrylamide], the IC50 (on TAK1-TAB1; in test [1]) was no more than 1000 nM throughout.

As for `NC(=O)/C=C\C(=O)Nc1c[nH]c2ncc(-c3ccccc3)cc12` [Example 234, N^1--(5-phenyl-1H-pyrrolo[2,3-b]pyridin-3-yl)maleamide], the half-maximal inhibitory concentration (IC50) on TAK1-TAB1 was greater than 1000 nM; in test [1] it was no more than 1000 nM.

On to `CN1CCC(NC(=O)c2ccc(-c3cnc4[nH]cc(/C=C/C(N)=O)c4c3)nc2)CC1` [Example 296, (E)-6-(3-(3-amino-3-oxoprop-1-en-1-yl)-1H-pyrrolo[2,3-b]pyridin-5-yl)-N-(1-methylpiperidin-4-yl)nicotinamide], for which the 50% inhibitory concentration (IC50) on TAK1-TAB1 was no more than 1000 nM; in test [1], greater than 1000 nM.

For `CC(C)Oc1ccc(-c2cnc3[nH]cc(/C=C/C(N)=O)c3c2)cn1` [Example 260, (E)-3-(5-(6-isopropoxypyridin-3-yl)-1H-pyrrolo[2,3-b]pyridin-3-yl)acrylamide], the half-maximal inhibitory concentration (IC50) (at TAK1-TAB1; in test [1]) was no more than 1000 nM in each case.

With `NC(=O)/C=C/c1c[nH]c2ncc(-c3cc(C(F)(F)F)cc(C(F)(F)F)c3)cc12` [Example 253, (E)-3-(5-(3,5-bis(trifluoromethyl)phenyl)-1H pyrrolo[2,3-b]pyridin-3-yl)acrylamide], the IC50 (at TAK1-TAB1; in test [1]) was no more than 1000 nM in each case.

In the case of `CC(=O)c1cccc(-c2cnc3[nH]cc(/C=C/C(N)=O)c3c2)c1` [Example 244, (E)-3-(5-(3-acetylphenyl)-1H-pyrrolo[2,3-b]pyridin-3-yl)acrylamide], the IC50 (on TAK1-TAB1; in test [1]) was no more than 1000 nM in each case.

Take `Cc1cc(-c2cnc3[nH]cc(/C=C/C(N)=O)c3c2)cc(C(C)(C)C)c1` [Example 256, (E)-3-(5-(3-(tert-butyl)-5-methylphenyl)-1H-pyrrolo[2,3-b]pyridin-3-yl)acrylamide]: the IC50 (on TAK1-TAB1; in test [1]) was no more than 1000 nM in each case.

For the compound `CC(=O)/C=C/c1c[nH]c2ncc(-c3cccnc3)cc12` [Example 251, (E)-4-(5-(pyridin-3-yl)-1H-pyrrolo[2,3-b]pyridin-3-yl)but-3-en-2-one], the IC50 at TAK1-TAB1 is no more than 1000 nM; in test [1], greater than 1000 nM.

Turning to `C[C@@H](O)C(=O)N1CCN(c2cnc3[nH]cc(/C=C/C(N)=O)c3c2)CC1` [Example 277, (R,E)-3-(5-(4-(2-hydroxypropanoyl)piperazin-1-yl)-1H-pyrrolo[2,3-b]pyridine-3-yl)acrylamide], the IC50 is no more than 1000 nM on TAK1-TAB1 and greater than 1000 nM in test [1].

In the case of `CC(C)(O)COc1ccc(-c2cnc3[nH]cc(/C=C/C(N)=O)c3c2)cn1` [Example 291, (E)-3-(5-(6-(2-hydroxy-2-methylpropoxy)pyridin-3-yl)-1H-pyrrolo[2,3-b]pyridin-3-yl)acrylamide], the concentration for half-maximal inhibition (IC50) (on TAK1-TAB1; in test [1]) was no more than 1000 nM each time.

On to `N#Cc1ccc(-c2cnc3[nH]cc(/C=C/C(N)=O)c3c2)cc1` [Example 17, 3-[5-(4-Cyano-phenyl)-1H-pyrrolo[2,3-b]pyridin-3-yl]-acrylamide], for which the half-maximal inhibitory concentration (IC50) (on TAK1-TAB1; in test [1]) was no more than 1000 nM throughout.

`CC(C)(O)COc1ccc(-c2cnc3[nH]cc(/C=C/C(N)=O)c3c2)cc1` [Example 32, (E)-3-(5-(4-(2-hydroxy-2-methylpropoxy)phenyl)-1H-pyrrolo[2,3-b]pyridin-3-yl)acrylamide]: the IC50 (at TAK1-TAB1; in test [1]) was no more than 1000 nM throughout.

Take `CSc1ncc(-c2cnc3[nH]cc(/C=C/C(N)=O)c3c2)cn1` [Example 287, (E)-3-(5-(2-(methylthio)pyrimidin-5-yl)-1H-pyrrolo[2,3-b]pyridin-3-yl)acrylamide]: the IC50 (at TAK1-TAB1; in test [1]) was no more than 1000 nM throughout.

As for `NC(=O)/C=C/c1c[nH]c2ncc(Cc3ccc(F)cc3)cc12` [Example 274, (E)-3-(5-(4-fluorobenzyl)-1H-pyrrolo[2,3-b]pyridin-3-yl)acrylamide], the half-maximal inhibitory concentration (IC50) (on TAK1-TAB1; in test [1]) was no more than 1000 nM in each case.

With `NC(=O)/C=C/c1c[nH]c2ncc(-c3cncnc3)cc12` [Example 286, (E)-3-(5-(pyrimidin-5-yl)-1H-pyrrolo[2,3-b]pyridin-3-yl)acrylamide], the values for the IC50 (at TAK1-TAB1; in test [1]) were no more than 1000 nM and greater than 1000 nM, respectively.

With `CC(C)(C)OC(=O)N1CCN(c2cnc3[nH]cc(/C=C/C(N)=O)c3c2)CC1` [Example 266, (E)-tert-butyl 4-(3-(3-amino-3-oxoprop-1-en-1-yl)-1H-pyrrolo[2,3-b]pyridin-5-yl)piperazine-1-carboxylate], the 50% inhibitory concentration (IC50) (at TAK1-TAB1; in test [1]) was no more than 1000 nM throughout.
